Earlier results, collected in patent US7186882B2, “Transgenic mouse over-expressing calreticulin (CRT) in vascular smooth muscle cells” (priority 2003, dated 2007).
Where a SMILES comes first, the peptide text is derived from it. Bridges are numbered along the chain shown (N, C = ends).

What was measured:
MMP-2/MMP-9 = MMP-2/MMP-9 inhibitor, values given as illustrative
CRT = conditions: siRNA to nucleotides 1917–1937 of SEQ ID NO. 1; Troussard et al., 2003
endothelial cells = conditions: added to the endothelial culture media; Pike et al., 1999
[1] = system: intimal hyperplasia after arterial injury; conditions: adult rats, exogenously added CRT; Dai et al., 1997

| IC50 (MMP-2/MMP-9) [nM] | Molecule | also measured |
| --- | --- | --- |
| 10000 | CC(C)C[C@@H]1NC(=O)[C@H]([C@@H](C)O)NC(=O)[C@H](Cc2ccccc2)NC(=O)CNC(=O)[C@H](Cc2c[nH]c3ccccc23)NC(=O)[C@H](Cc2cnc[nH]2)NC(=O)[C@H]([C@@H](C)O)NC(=O)[C@H]([C@@H](C)O)NC(=O)[C@@H](N)CSSC[C@@H](C(=O)O)NC1=O [MMP-2/MMP-9 inhibitor III] (H-CTTHWGFTLC-OH; disulfide 1-10) |  |
|  | siRNA: small interference RNA to CRT mRNA, sense 5′-GCUGAUCGUGCGGCCGGACAA dTT 3′, anti-sense 5′-UUGUCCGGCCGCACGAUCAGC dTT 3′ (sense GCUGAUCGUGCGGCCGGACAATT; antisense UUGUCCGGCCGCACGAUCAGCTT; chemistry not fully specified) | expression of CRT (CRT): significantly diminish the expression of CRT |
| 240 to 350 | O=C(O)[C@@H](Cc1ccccc1)NS(=O)(=O)c1ccc(-c2ccccc2)cc1 [MMP-2/MMP-9 inhibitor I, (2R)-2-[(4-Biphenylylsulfonyl)amino]-3-phenylpropionic Acid] |  |
| 17 to 30 | O=C(NO)[C@@H](Cc1ccccc1)NS(=O)(=O)c1ccc(-c2ccccc2)cc1 [MMP-2/MMP-9 inhibitor II] |  |
|  | CRT: calreticulin, 46 kDa ER protein, exogenously added to vascular cells or vessel lumen (protein, CRT peptide sequence from CRT cDNA, calreticulin, 46 kDa ER protein, exogenously added to vascular cells or vessel lumen) MLLPVPLLLGLLGLAAAEPVVYFKEQFLDGDGWTERWIESKHKSDFGKFVLSSGKFYGDQEKDKGLQTSQDARFYALSARFEPFSNKGQPLVVQFTVKHEQNIDCGGGYVKLFPAGLDQKDMHGDSEYNIMFGPDICGPGTKKVHVIFNYKGKNVLINKDIRCKDDEFTHLYTLIVRPDNTYEVKIDNSQVESGSLEDDWDFLPPKKIKDPDASKPEDWDERAKIDDPTDSKPEDWDKPEHIPDPDAKKPEDWDEEMDGEWEPPVIQNPEYKGEWKPRQIDNPDYKGTWIHPEIDNPEYSPDANIYAYDSFAVLGLDLWQVKSGTIFDNFLITNDEAYAEEFGNETWGVTKTAEKQMKDKQDEEQRLKEEEEEKKRKEEEEAEEDEEDKDDKEDEDEDEEDKDEEEEEAAAGQAKDEL | endothelial cell proliferation (endothelial cells): selectively inhibits endothelial cell proliferation; intimal hyperplasia (restenosis) after arterial injury [1]: reducing intimal hyperplasia |
